Measured values taken from patent US9557333B2, “Methods of treating gastrointestinal sarcoma patients depending on their sB7H6 serum level” (INSTITUT GUSTAVE ROUSSY, priority 2012, dated 2017).

Legend:
sB7H6 = test: Serum sB7H6 measured by ELISA longitudinally during IM treatment of GIST patients; assay type: in vivo, human
Experimental: 49 GIST patients were treated with imatinib (IM) from May 1994 until October 2010 (BFR14 cohort). Patients' samples were provided by the Gustave Roussy Institute (Villejuif, France) and the Centre Léon Bérard (Lyon). Sera were drained from blood drawn during control visits. Clinical responses were assessed by computed tomography (CT) scan and the responses were classified according to the RECIST criteria.
(§1) sB7H6 and sMIC were assessed from the sera of patients by the ELISA method.
Soluble B7-H6 detection was assessed from sera of patients by the ELISA method: 17B1.3 mAbs was coated at 5 μg/ml in 0.1 M NaHCO3 solution overnight at 4° C. in 96-well Nunc-Immuno™ plates (Thermo Scientific). Blocking solution (PBS supplemented with 3% BSA) was then added overnight at 4° C. After discarding this solution, serial dilutions of sB7-H6 were incubated for 3 hours at room temperature. Then biotin-conjugated 9G9.2 was added to each well (1 μg/ml in PBS supplemented with 1% BSA) for 1 hour at room temperature. Anti-biotin HRP (Sigma-Aldrich) was then added for 1 hour at room temperature. Finally, BD Optia TMB substrate (BD Biosciences) was used to reveal the staining and left to incubate for 15-30 minutes at room temperature. The reaction was stopped with 1 M HCl and the optic density (OD) at 450 nm was read with Apollo LB 911 from Berthold.

sMIC = test: Serum sMIC measured by ELISA longitudinally during IM treatment of GIST patients; assay type: in vivo, human; conditions: followed during treatment
Experimental: 49 GIST patients were treated with imatinib (IM) from May 1994 until October 2010 (BFR14 cohort). Patients' samples were provided by the Gustave Roussy Institute (Villejuif, France) and the Centre Léon Bérard (Lyon). Sera were drained from blood drawn during control visits. Clinical responses were assessed by computed tomography (CT) scan and the responses were classified according to the RECIST criteria. GIST tumor samples were obtained following surgery carried out at the Gustave Roussy Institute (Villejuif, France).
as §1

Compound: Cc1ccc(NC(=O)c2ccc(CN3CCN(C)CC3)cc2)cc1Nc1nccc(-c2cccnc2)n1 [IM, imatinib]
- levels of sB7H6 in sera after 1 year of IM treatment (sB7H6; after 1 year of treatment): not detected
- levels of sB7H6 in sera during IM treatment (sB7H6; followed with time of treatment): decreased with the time of treatment
- levels of sMIC in sera following IM treatment (sMIC): tend to decrease
